# Test results: publication PMC5218480 (PLoS ONE, 2017)
# Test system: MV-4-11 cells
# Experiment: Gene expression microarray analysis (Affymetrix PrimeView) and GSEA
# Format: cell-based, human
# Set-up: RFU PODN (11730768_x_at) / Fold change /veh PODN (11730768_x_at) / RFU LINC00158 (11744669_a_at) / Fold change /veh LINC00158 (11744669_a_at) / RFU DUSP10 (11751237_a_at) / Fold change /veh DUSP10 (11751237_a_at) / RFU ID3 (11757404_x_at) / Fold change /veh ID3 (11757404_x_at) / RFU PLEKHG5 (11737974_s_at) / Fold change /veh PLEKHG5 (11737974_s_at) / RFU LRRC4B (11730491_at) / Fold change /veh LRRC4B (11730491_at) / RFU GIMAP4 (11747438_a_at) / Fold change /veh GIMAP4 (11747438_a_at) / RFU KRT8 (11758183_x_at) / Fold change /veh KRT8 (11758183_x_at) / RFU CNN1 (11734310_a_at) / Fold change /veh CNN1 (11734310_a_at) / RFU VPS37D (11726825_at) / Fold change /veh VPS37D (11726825_at) / RFU C10orf10 (11716522_x_at) / Fold change /veh C10orf10 (11716522_x_at) / RFU KIR2DL2 /// KIR2DL4 /// KIR2DL5A /// KIR2DL5B /// KIR2DS1 /// KIR2DS2 /// KIR2DS3 /// KIR2DS4 /// KIR3DL3 /// KIR3DL3 /// KIR3DS1 (11738374_at) / Fold change /veh KIR2DL2 /// KIR2DL4 /// KIR2DL5A /// KIR2DL5B /// KIR2DS1 /// KIR2DS2 /// KIR2DS3 /// KIR2DS4 /// KIR3DL3 /// KIR3DL3 /// KIR3DS1 (11738374_at) / RFU C1QL1 (11718748_at) / Fold change /veh C1QL1 (11718748_at) / RFU TMPRSS4 (11747572_a_at) / Fold change /veh TMPRSS4 (11747572_a_at) / RFU HAMP (11756126_x_at) / Fold change /veh HAMP (11756126_x_at) / RFU RNFT2 (11725882_a_at) / Fold change /veh RNFT2 (11725882_a_at) / RFU NR4A2 (11747474_a_at) / Fold change /veh NR4A2 (11747474_a_at) / RFU ABCC12 (11746883_a_at) / Fold change /veh ABCC12 (11746883_a_at) / RFU TMEM136 (11760407_x_at) / Fold change /veh TMEM136 (11760407_x_at) / RFU CLDN22 /// WWC2 (11732394_at) / Fold change /veh CLDN22 /// WWC2 (11732394_at) / RFU HLA-DPB1 (11760878_x_at) / Fold change /veh HLA-DPB1 (11760878_x_at) / RFU SPINT1 (11716480_a_at) / Fold change /veh SPINT1 (11716480_a_at) / RFU GAP43 (11754022_s_at) / Fold change /veh GAP43 (11754022_s_at) / RFU A4GNT (11735810_at) / Fold change /veh A4GNT (11735810_at) / RFU PRB3 (11715151_x_at) / Fold change /veh PRB3 (11715151_x_at) / RFU TUBB4B (11761932_at) / Fold change /veh TUBB4B (11761932_at) / RFU CAPN14 (11732068_a_at) / Fold change /veh CAPN14 (11732068_a_at) / RFU TMCC2 (11721928_a_at) / Fold change /veh TMCC2 (11721928_a_at) / RFU IRGQ (11745062_a_at) / Fold change /veh IRGQ (11745062_a_at) / RFU FAM174B (11720279_a_at) / Fold change /veh FAM174B (11720279_a_at) / RFU TMPRSS4 (11748680_a_at) / Fold change /veh TMPRSS4 (11748680_a_at) / RFU FAM212B (11763350_a_at) / Fold change /veh FAM212B (11763350_a_at) / RFU PLEKHG5 (11743358_a_at) / Fold change /veh PLEKHG5 (11743358_a_at) / RFU ZSCAN30 (11745921_a_at) / Fold change /veh ZSCAN30 (11745921_a_at) / RFU CMKLR1 (11741424_a_at) / Fold change /veh CMKLR1 (11741424_a_at) / RFU LOC101060620 /// MAPK8IP1 (11723275_at) / Fold change /veh LOC101060620 /// MAPK8IP1 (11723275_at) / RFU SPTSSB (11747773_x_at) / Fold change /veh SPTSSB (11747773_x_at) / RFU PRSS12 (11739890_at) / Fold change /veh PRSS12 (11739890_at) / RFU BIN1 (11741810_x_at) / Fold change /veh BIN1 (11741810_x_at) / RFU WNT11 (11732464_a_at) / Fold change /veh WNT11 (11732464_a_at) / RFU C10orf10 (11716521_a_at) / Fold change /veh C10orf10 (11716521_a_at) / RFU C5orf56 (11738089_at) / Fold change /veh C5orf56 (11738089_at) / RFU CYB561 (11721691_x_at) / Fold change /veh CYB561 (11721691_x_at) / RFU ANKRD19P (11752326_a_at) / Fold change /veh ANKRD19P (11752326_a_at) / RFU OR2T12 /// OR2T33 /// OR2T8 (11738714_s_at) / Fold change /veh OR2T12 /// OR2T33 /// OR2T8 (11738714_s_at) / RFU VCAN (11748164_a_at) / Fold change /veh VCAN (11748164_a_at) / RFU JSRP1 (11732532_at) / Fold change /veh JSRP1 (11732532_at) / RFU KRTAP10-11 (11738290_x_at) / Fold change /veh KRTAP10-11 (11738290_x_at) / RFU MYO3A (11730013_a_at) / Fold change /veh MYO3A (11730013_a_at) / RFU EBF3 (11725865_a_at) / Fold change /veh EBF3 (11725865_a_at) / RFU CAMK2N1 (11719241_x_at) / Fold change /veh CAMK2N1 (11719241_x_at) / RFU C5orf56 (11738088_a_at) / Fold change /veh C5orf56 (11738088_a_at) / RFU OLFML3 (11715873_a_at) / Fold change /veh OLFML3 (11715873_a_at) / RFU LOC100653217 /// NTM (11731650_a_at) / Fold change /veh LOC100653217 /// NTM (11731650_a_at) / RFU MAPK11 (11762145_a_at) / Fold change /veh MAPK11 (11762145_a_at) / RFU FIZ1 (11724087_x_at) / Fold change /veh FIZ1 (11724087_x_at) / RFU OASL (11726364_x_at) / Fold change /veh OASL (11726364_x_at) / RFU SOX15 (11748057_x_at) / Fold change /veh SOX15 (11748057_x_at) / RFU CD79A (11719716_a_at) / Fold change /veh CD79A (11719716_a_at) / RFU HIST1H1D (11736915_at) / Fold change /veh HIST1H1D (11736915_at) / RFU CASKIN2 (11723855_a_at) / Fold change /veh CASKIN2 (11723855_a_at) / RFU LOC730098 (11760151_x_at) / Fold change /veh LOC730098 (11760151_x_at) / RFU OR4N2 (11742367_at) / Fold change /veh OR4N2 (11742367_at) / RFU PRRT2 (11749266_a_at) / Fold change /veh PRRT2 (11749266_a_at) / RFU SNX32 (11753110_a_at) / Fold change /veh SNX32 (11753110_a_at) / RFU CDHR5 (11726645_a_at) / Fold change /veh CDHR5 (11726645_a_at) / RFU RCAN1 (11760418_a_at) / Fold change /veh RCAN1 (11760418_a_at) / RFU FAM167A (11723789_a_at) / Fold change /veh FAM167A (11723789_a_at) / RFU FAM26E (11764081_at) / Fold change /veh FAM26E (11764081_at) / RFU ISYNA1 (11749810_s_at) / Fold change /veh ISYNA1 (11749810_s_at) / RFU ACY1 (11761880_at) / Fold change /veh ACY1 (11761880_at) / RFU 11764098_at / Fold change /veh 11764098_at / RFU SAMD14 (11745864_x_at) / Fold change /veh SAMD14 (11745864_x_at) / RFU NPB (11741838_a_at) / Fold change /veh NPB (11741838_a_at) / RFU TMPRSS6 (11731388_a_at) / Fold change /veh TMPRSS6 (11731388_a_at) / RFU KRTAP10-2 (11738614_at) / Fold change /veh KRTAP10-2 (11738614_at) / RFU ARHGAP8 /// PRR5-ARHGAP8 (11727945_x_at) / Fold change /veh ARHGAP8 /// PRR5-ARHGAP8 (11727945_x_at) / RFU KRTAP5-7 /// NADSYN1 (11734609_at) / Fold change /veh KRTAP5-7 /// NADSYN1 (11734609_at) / RFU RASL12 (11751679_a_at) / Fold change /veh RASL12 (11751679_a_at) / RFU CDKN2B (11736163_a_at) / Fold change /veh CDKN2B (11736163_a_at) / RFU PRF1 (11729649_at) / Fold change /veh PRF1 (11729649_at) / RFU, ZNF638 /// ZNF638-IT1 / Fold change vs veh, ZNF638 /// ZNF638-IT1 / RFU, PANK3 / Fold change vs veh, PANK3 / RFU, SH3YL1 / Fold change vs veh, SH3YL1 / RFU, ZEB2 / Fold change vs veh, ZEB2 / RFU, NRIP1 / Fold change vs veh, NRIP1 / RFU, PTTG1IP / Fold change vs veh, PTTG1IP / RFU, CAPN2 / Fold change vs veh, CAPN2 / RFU, MED14 / Fold change vs veh, MED14 / RFU, SNORA58 / Fold change vs veh, SNORA58 / RFU, C1orf63 / Fold change vs veh, C1orf63 / RFU, LRRFIP1 / Fold change vs veh, LRRFIP1 / RFU, NDUFAF7 / Fold change vs veh, NDUFAF7 / RFU, SLC12A2 / Fold change vs veh, SLC12A2 / RFU, IBTK / Fold change vs veh, IBTK / RFU, ESF1 / Fold change vs veh, ESF1 / Fold change vs veh, TMEM50B / RFU, TAOK1 / Fold change vs veh, TAOK1 / RFU, ACBD3 / Fold change vs veh, ACBD3 / RFU, TMA16 / Fold change vs veh, TMA16 / RFU, RWDD3 / Fold change vs veh, RWDD3 / RFU, BCAT1 / Fold change vs veh, BCAT1 / RFU, EDEM3 / Fold change vs veh, EDEM3 / RFU, TMEM33 / Fold change vs veh, TMEM33 / RFU, WDR75 / Fold change vs veh, WDR75 / RFU, AHCTF1 / Fold change vs veh, AHCTF1 / RFU, TFRC / Fold change vs veh, TFRC / RFU, ZDHHC17 / Fold change vs veh, ZDHHC17 / RFU, NOM1 / Fold change vs veh, NOM1 / RFU, ARL8B / Fold change vs veh, ARL8B / RFU, ZBTB11 / Fold change vs veh, ZBTB11 / RFU, TAMM41 / Fold change vs veh, TAMM41 / RFU, KIAA1704 /// LOC100996395 / Fold change vs veh, KIAA1704 /// LOC100996395 / RFU, ING1 / Fold change vs veh, ING1 / RFU, TRMT61B / Fold change vs veh, TRMT61B / RFU, FUBP3 / Fold change vs veh, FUBP3 / RFU, TP53 / Fold change vs veh, TP53 / RFU, TNKS2 / Fold change vs veh, TNKS2 / RFU, ZFP14 / Fold change vs veh, ZFP14 / RFU, ACTR2 / Fold change vs veh, ACTR2 / RFU, PPP3R1 / Fold change vs veh, PPP3R1 / RFU, PIK3R1 / Fold change vs veh, PIK3R1 / RFU, HNRNPA1 / Fold change vs veh, HNRNPA1 / RFU, RNF170 / Fold change vs veh, RNF170 / RFU, ZNF28 / Fold change vs veh, ZNF28 / RFU, RNGTT / Fold change vs veh, RNGTT / RFU, OGT / Fold change vs veh, OGT / RFU, BRD1 / Fold change vs veh, BRD1 / RFU, MARS / Fold change vs veh, MARS / RFU, ZNF655 / Fold change vs veh, ZNF655 / RFU, FAHD1 / Fold change vs veh, FAHD1 / RFU, BDP1 / Fold change vs veh, BDP1 / RFU, LRRCC1 / Fold change vs veh, LRRCC1 / RFU, ARID1A / Fold change vs veh, ARID1A / RFU, ZNF146 / Fold change vs veh, ZNF146 / RFU, ZNF330 / Fold change vs veh, ZNF330 / RFU, GPN3 / Fold change vs veh, GPN3 / RFU, C9orf123 / Fold change vs veh, C9orf123 / RFU, N4BP2L2 / Fold change vs veh, N4BP2L2 / RFU, ARFIP1 / Fold change vs veh, ARFIP1 / RFU, FAM179B / Fold change vs veh, FAM179B / RFU, BCL10 / Fold change vs veh, BCL10 / RFU, UHRF1BP1L / Fold change vs veh, UHRF1BP1L / RFU, BET1 / Fold change vs veh, BET1 / RFU, CNOT2 / Fold change vs veh, CNOT2 / RFU, ZNF268 / Fold change vs veh, ZNF268 / Fold change vs veh, ZNF507 / RFU, DGCR2 / Fold change vs veh, DGCR2 / RFU, WDSUB1 / Fold change vs veh, WDSUB1 / Fold change vs veh, HSP90B1 /// MIR3652 / RFU, ADSS / Fold change vs veh, ADSS / RFU, GK / Fold change vs veh, GK / RFU, ZNF148 / Fold change vs veh, ZNF148 / RFU, TAF9 / Fold change vs veh, TAF9 / RFU, SLC1A5 / Fold change vs veh, SLC1A5 / RFU, SLMO2 / Fold change vs veh, SLMO2 / RFU, ABCC4 / Fold change vs veh, ABCC4 / RFU, LOC101060439 /// RAP1B / Fold change vs veh, LOC101060439 /// RAP1B / RFU, RFX7 / Fold change vs veh, RFX7 / RFU, GTPBP10 / Fold change vs veh, GTPBP10 / RFU, CNEP1R1 / Fold change vs veh, CNEP1R1 / RFU, BIVM-ERCC5 /// ERCC5 / Fold change vs veh, BIVM-ERCC5 /// ERCC5 / RFU, ILF3 / Fold change vs veh, ILF3 / RFU 11762660_at / Fold change /veh 11762660_at / RFU VCAN (11757783_s_at) / Fold change /veh VCAN (11757783_s_at) / RFU DDX43 (11728927_at) / Fold change /veh DDX43 (11728927_at) / RFU KRT8 (11758188_x_at) / Fold change /veh KRT8 (11758188_x_at) / RFU NKD1 (11759106_at) / Fold change /veh NKD1 (11759106_at) / RFU SRD5A1 (11742802_a_at) / Fold change /veh SRD5A1 (11742802_a_at) / RFU TPSAB1 /// TPSB2 (11721975_s_at) / Fold change /veh TPSAB1 /// TPSB2 (11721975_s_at) / RFU GSTM3 (11746129_a_at) / Fold change /veh GSTM3 (11746129_a_at) / RFU IL23R (11737362_x_at) / Fold change /veh IL23R (11737362_x_at) / RFU TMEM51 (11727254_a_at) / Fold change /veh TMEM51 (11727254_a_at) / RFU PIWIL2 (11732686_x_at) / Fold change /veh PIWIL2 (11732686_x_at) / RFU ORM1 (11744905_x_at) / Fold change /veh ORM1 (11744905_x_at) / RFU CCDC152 (11743942_at) / Fold change /veh CCDC152 (11743942_at) / RFU ECM1 (11717891_a_at) / Fold change /veh ECM1 (11717891_a_at) / RFU IL23R (11748794_a_at) / Fold change /veh IL23R (11748794_a_at) / RFU TNFAIP8L3 (11732012_x_at) / Fold change /veh TNFAIP8L3 (11732012_x_at) / RFU MBOAT4 (11741988_at) / Fold change /veh MBOAT4 (11741988_at) / RFU 11764193_at / Fold change /veh 11764193_at / RFU TMEM53 (11763286_at) / Fold change /veh TMEM53 (11763286_at) / RFU MAGEB2 (11727129_at) / Fold change /veh MAGEB2 (11727129_at) / RFU TMEM200A (11744735_a_at) / Fold change /veh TMEM200A (11744735_a_at) / RFU CCDC152 (11751479_a_at) / Fold change /veh CCDC152 (11751479_a_at) / RFU FAM211A (11726209_a_at) / Fold change /veh FAM211A (11726209_a_at) / RFU RGS16 (11746705_a_at) / Fold change /veh RGS16 (11746705_a_at) / RFU VCAN (11755009_s_at) / Fold change /veh VCAN (11755009_s_at) / RFU RHOB (11743442_s_at) / Fold change /veh RHOB (11743442_s_at) / RFU RGS16 (11720943_a_at) / Fold change /veh RGS16 (11720943_a_at) / RFU RGS16 (11720944_at) / Fold change /veh RGS16 (11720944_at) / RFU, VPS4B / Fold change vs veh, VPS4B / RFU, CREB1 / Fold change vs veh, CREB1 / RFU, DNAJC13 / Fold change vs veh, DNAJC13 / RFU, GNAQ / Fold change vs veh, GNAQ / RFU, CDK5R1 / Fold change vs veh, CDK5R1 / RFU, ZRANB3 / Fold change vs veh, ZRANB3 / RFU, CUL4A / Fold change vs veh, CUL4A / RFU, CCNY / Fold change vs veh, CCNY / RFU, UFL1 / Fold change vs veh, UFL1 / RFU, COG3 / Fold change vs veh, COG3 / RFU, DIAPH2 / Fold change vs veh, DIAPH2 / RFU, SKA2 / Fold change vs veh, SKA2 / RFU, AFF3 / Fold change vs veh, AFF3 / RFU, LMF1 / Fold change vs veh, LMF1 / RFU, IPO11 / Fold change vs veh, IPO11 / RFU, DFFB / Fold change vs veh, DFFB / RFU, FOXP1 / Fold change vs veh, FOXP1 / RFU, CARD8 / Fold change vs veh, CARD8 / RFU, STRN3 / Fold change vs veh, STRN3 / RFU, ADK / Fold change vs veh, ADK / RFU, RASSF2 / Fold change vs veh, RASSF2 / RFU, WIPF1 / Fold change vs veh, WIPF1 / RFU, LARP1B / Fold change vs veh, LARP1B / RFU, RASA1 / Fold change vs veh, RASA1 / RFU, RB1 / Fold change vs veh, RB1 / RFU, PPFIA1 / Fold change vs veh, PPFIA1 / RFU, MAT2A / Fold change vs veh, MAT2A / RFU, CCT5 / Fold change vs veh, CCT5 / RFU, WDR92 / Fold change vs veh, WDR92 / RFU, CUX1 / Fold change vs veh, CUX1 / RFU, TTC7A / Fold change vs veh, TTC7A / RFU, TMEM135 / Fold change vs veh, TMEM135 / RFU, DEPTOR / Fold change vs veh, DEPTOR / RFU, CPM / Fold change vs veh, CPM / RFU, DNAJB6 / Fold change vs veh, DNAJB6 / RFU, CACNA2D3 / Fold change vs veh, CACNA2D3 / RFU, DTX4 / Fold change vs veh, DTX4 / RFU, TFCP2 / Fold change vs veh, TFCP2 / RFU, GMCL1 /// GMCL1P1 / Fold change vs veh, GMCL1 /// GMCL1P1 / RFU, AEBP2 / Fold change vs veh, AEBP2 / RFU, SNHG1 /// SNORD22 /// SNORD25 /// SNORD26 /// SNORD27 /// SNORD28 /// SNORD29 /// SNORD31 / Fold change vs veh, SNHG1 /// SNORD22 /// SNORD25 /// SNORD26 /// SNORD27 /// SNORD28 /// SNORD29 /// SNORD31 / Fold change (Aza/veh), C12orf56 (ProbeSet 11735607_a_at) / Fold change (ACY-1035/veh), C12orf56 (ProbeSet 11735607_a_at) / Fold change (Aza/veh), FGFR1OP (ProbeSet 11751329_s_at) / Fold change (ACY-1035/veh), FGFR1OP (ProbeSet 11751329_s_at) / Fold change (Aza/veh), VPS36 (ProbeSet 11739960_a_at) / Fold change (ACY-1035/veh), VPS36 (ProbeSet 11739960_a_at) / RFU SYPL1 (11715823_x_at) / Fold change /veh SYPL1 (11715823_x_at) / RFU IGFBP7 (11715501_s_at) / Fold change /veh IGFBP7 (11715501_s_at) / RFU REEP3 (11722064_at) / Fold change /veh REEP3 (11722064_at) / RFU IGLL1 (11728026_x_at) / Fold change /veh IGLL1 (11728026_x_at): dose or concentration left out as unconfirmed
# Settings: ProbeSet 11725902_s_at; LIST D
smiles,measurement,value
Nc1ccc(-c2cccs2)cc1NC(=O)c1ccc2c(c1)cc(C1CC1)n2CCN1CCOCC1 [ACY-1035],"RFU, TMEM135",107.94 RFU
